Results taken from patent US20220267271A1, “WNT ACTIVATORS AND METHODS OF USE” (MAYO FOUNDATION FOR MEDICAL EDUCATION AND RESEARCH, priority 2019, published 2022).
≈ marks a conversion by molar mass, not a printed value. Like-named read-outs stand apart in the source and are kept apart here.

How the values were obtained:
C2C12 cells = test: Alkaline phosphatase (ALP) activity assay, osteoblastic differentiation of C2C12 cells; assay type: cell-based; conditions: 72 h; for potency in inducing C2C12 osteoblastic differentiation compared with CI-994: dose-response 0.1-12.8 μM
Experimental: C2C12 cells were seeded into 24-well plates (1×10^5 cells/well). After culture overnight, the cells were treated with a Wnt activator at 0.8 μM (A) and 1.6 μM (B) for 72 h. The ALP activity was measured by ALP assay kit from AnaSpec (AS-72146). All the values are the average of triple determinations with the s.d. indicated by error bars. *P<0.05, **P<0.01 versus corresponding control value. This experiment is a representation of two such experiments performed with similar data.
C2C12 cells were seeded into 24-well plates (1×10^5 cells/well). After culture overnight, the cells were treated with the noted compounds at 0, 0.1, 0.2, 0.4, 0.8, 1.6, 3.2, 6.4 and 12.8 μM for 72 hours. The ALP activity was measured by ALP assay kit from AnaSpec (AS-72146). All the values are the average of triple determinations with the s.d. indicated by error bars.
Alkaline phosphatase (ALP) activity assay: C2C12 cells in 24-well plates were treated with each individual compound at the indicated concentrations for 72 h. Cells were then harvested for assay of ALP activity with the ALP assay kit (AnaSpec) according to the manufacturers specifications.

LRP6 = test: Wnt reporter assay in HEK293 cells after LRP6 siRNA knockdown; assay type: cell-based, human; conditions: CI-994 16 μM, 1011, 1015, 1023 1 μM, 24 h
Experimental: (A) structures of niciosamide and CI-994; (B) HEK293 cells were transfected with Super8XTOPFlash and β galactosidase vectors along with Wnt3A or control vector. After 24 hours incubation, cells were treated with CI-994 at the indicated concentration for 24 hr. The luciferase activity was then measured and normalized to the activity of the β-galactosidase. (C) HT1080 cells stably transduced LRP6 with HA tag were treated with niciosamide and CI-994 at the indicated concentrations for 24 h. The levels of HA-LRP6 were examined by Western blot with anti-HA antibody. (D) Western blots showing the depletion of LRP6 after 2 days of transiently transfection of 50 nM LRP6 siRNA in HEK293 cells. ON-TARGETplus double-stranded siRNA oligomers against human LRP6 and non-specific scrambled siRNA control (Stealth RNAi™ siRNA Negative Control, Med GC) were purchased from Thermo Scientific. siRNA LRP6-1, siRNA LRP6-2 and control siRNA were Thermo Scientific catalog numbers J-003845-09, J-003845-11 and 12935300, respectively. (E) HEK293 cells were transfected with LRP6 siRNAs, and after 8 h incubation were further transfected with Super8XTOPFlash construct and β galactosidase-expressing vector. After 24 h incubation, the cells were treated with CI-994 (16 μM) for 24 h. The luciferase activity was then measured and normalized to β-galactosidase activity. All the values are the average of triplicate determinations with the SD values indicated by error bars. **P<0.01 versus corresponding control value.
(A) HT1080 cells stably transduced with human LRP6 with HA tag were treated with niciosamide (1 μM) and other compounds as noted (1 μM) for 24 hr. The levels of HA-LRP6 were examined by Western blots with anti-HA antibody. All samples were also probed with anti-actin antibody to verify equal loading. This experiment is a representative of two such experiments performed with similar data. (B) N2a cells were treated with 1015 and 1011 at the indicated concentrations for 24 h. The expression levels of LRP6, β-catenin and actin were examined by Western blotting. This experiment is a representative of three such experiments performed with similar data. (C) HEK293 cells were transfected with LRP6 siRNAs, and after 8 h incubation were further transfected with Super8XTOPFlash construct and β galactosidase-expressing vector. ON-TARGETplus double-stranded siRNA oligomers against human LRP6 and non-specific scrambled siRNA control (Stealth RNAi™ siRNA Negative Control, Med GC) were purchased from Thermo Scientific. siRNA LRP6-1, siRNA LRP6-2 and control siRNA were Thermo Scientific catalog numbers J-003845-09, J-003845-11 and 12935300, respectively. […] The luciferase activity was then measured and normalized to β-galactosidase activity. […]

[1] = Aqueous (kinetic) solubility assay in PBS pH 7.4; assay type: physicochemical; conditions: phosphate-buffered saline, 25 °C, pH 7.4, aqueous buffer, kinetic from dmso stock, PBS pH 7.4, 2% DMSO, two hours, assay range 2-200 μM
Experimental: Aqueous solubility assay: Using a 10 mM stock solution of the compound in 100% DMSO, dilutions were prepared to a theoretical concentration of 200 μM in duplicates in phosphate-buffered saline pH 7.4 with 2% final DMSO. In parallel, compound dilutions in 50% acetonitrile/PBS were prepared to theoretical concentrations of 0 μM (blank), 50 μM, 100 μM and 200 μM with 2% final DMSO to generate calibration curves. The experimental compound dilutions in PBS were further allowed to equilibrate at 25° C. on a thermostatic orbital shaker for two hours and then centrifuged at 14000 rpm, 5 min and filtered through HTS filter plates using a vacuum manifold. The supernatants of test compounds were diluted 2-fold with acetonitrile contained 4% DMSO before measuring. Ondansetron was used as reference compound to control proper assay performance. 200 μl of samples were transferred to 96-well plate and measured in 200-550 nm range with 5 nm step. The effective range of this assay is approximately 2-200 μM and the compounds returning values close to the upper limit of the range may have higher actual solubility (e.g. 5 ? deoxy-5-fluorouddine).

HDAC = test: Histone Deacetylase (HDAC) activity assay (fluorometric kit); assay type: biochemical; conditions: 2 μM
Experimental: HDAC enzymatic activities of compounds were measured by fluorometric HDAC Activity Assay kit (Abcam. #ab156064). Trichostatin A, a known HDAC inhibitor, was used as the positive control. All the values are the average of triple determination with the s.d. indicated by error bars. **P<0.01 versus the corresponding control value.
Histone Deacetylase (HDAC) activity assay: Histone Deacetylase (HDAC) activity assay kit (ab156064) was purchased from Abcam, and the effects of the tested compounds on HDAC activity were examined according to the manufacturers specifications.

[2] = read-out: PBS solubility, pH 7.4, μM Exp1
[3] = read-out: PBS solubility, pH 7.4, μM Exp2
[4] = read-out: PBS solubility, pH 7.4, μM Mean

| SMILES | ALP activity (C2C12 cells; C2C12 cells, 0.8 μM and 1.6 μM) | effect of knockdown of LRP6 expression on the compound's effect on Wnt/β-catenin signaling (LRP6) | solubility at 2 h [1, 2] [µM] | solubility at 2 h [1, 3] [µM] | solubility at 2 h [1, 4] [µM] | inhibitory effects on HDAC activity (HDAC) | potency in inducing C2C12 osteoblastic differentiation compared with CI-994 (C2C12 cells) |
| --- | --- | --- | --- | --- | --- | --- | --- |
| CC(=O)Nc1ccc(C(=O)Nc2ccccc2N)cc1 [CI-994, 4-(acetylamino)-N-(2-aminophenyl)benzamide, reference compound] | significantly enhanced | significantly attenuated |  |  |  |  |  |
| CC1CCCC(C)N1CCNC(=O)c1ccc(C(=O)Nc2ccccc2N)nc1 (stereo not drawn) [Compound 1011] |  | significantly attenuated | 207 (≈ 81.9 µg/mL) | 207 (≈ 81.9 µg/mL) | ≥ 200 | do not display any inhibitory effects | more potent than CI-994 |
| Nc1ccccc1NC(=O)c1ccc(C(=O)NCC2CCN2C2CCCC2)cn1 (stereo not drawn) [Compound 1015] |  | significantly attenuated | 210 (≈ 82.6 µg/mL) | 211 (≈ 83 µg/mL) | ≥ 200 | do not display any inhibitory effects | more potent than CI-994 |
| Nc1ccccc1NC(=O)c1ccc(C(=O)NCCN2CCC3(CCCCC3)CC2)cc1 [Compound 1020] |  |  | 200 (≈ 86.9 µg/mL) | 205 (≈ 89.1 µg/mL) | ≥ 200 | do not display any inhibitory effects |  |
